Measured values published in article PMC11480411, “Mucosal sugars delineate pyrazine vs pyrazinone autoinducer signaling in Klebsiella oxytoca” (Nature Communications, 2024).
Where “and” joins values, the source holds several entries; their conditions need not be identical. Equal entries are not always repeated.

Legend:
Experiment in all cases: PRESTO-Tango GPCR screen and dose-response
Format in all cases: cell-based
HRH2 = biological target: T1, HRH2 (Homo sapiens, UniProt P25021); settings: for HRH2 dose-response raw reporter signal (Fig. 5b source data): replicate wells
T1 construct: expressed in transfected cells; host or cells: HTLA cells (HEK293 line stably expressing β-arrestin-TEV and tTA-Luciferase)
T1 sequence (P25021 whole entry): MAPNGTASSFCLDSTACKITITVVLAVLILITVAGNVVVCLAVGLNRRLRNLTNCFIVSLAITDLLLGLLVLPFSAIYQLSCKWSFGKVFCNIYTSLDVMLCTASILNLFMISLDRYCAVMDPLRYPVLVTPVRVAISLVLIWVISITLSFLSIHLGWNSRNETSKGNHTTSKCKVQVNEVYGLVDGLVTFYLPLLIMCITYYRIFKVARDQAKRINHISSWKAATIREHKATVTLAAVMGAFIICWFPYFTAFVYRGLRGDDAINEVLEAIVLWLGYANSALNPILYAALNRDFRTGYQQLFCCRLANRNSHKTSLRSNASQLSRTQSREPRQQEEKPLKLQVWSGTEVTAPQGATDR
Procedure: (§1) The PRESTO-Tango analyses were performed as previously published. Briefly, HTLA cells, a HEK293 cell line that stably expresses β-arrestin-TEV and tTA-Luciferase (a kind gift from Gilad Barnea, Brown University), were plated in 96-well tissue culture plates (Eppendorf) in DMEM containing 10% FBS and 1% Penicillin/Streptomycin. One day after plating (after reaching approximately 90% confluence), 200 ng per well GPCR-Tango plasmids[37] in 20 μL DMEM were individually mixed with 400 ng polyethylenimine (Polysciences) in an equal volume of DMEM and incubated for 20 min at room temperature before adding the transfection mixture to the HTLA cells. 16-24 h after transfection, medium was replaced with 180 μL fresh DMEM containing 1% Penicillin/Streptomycin and 10 mM HEPES and 20 μL of 3 or 3-Homo to reach a final concentration of 100 μM. Supernatants were aspirated 20 h after stimulation and 50 μl per well of Bright-Glo solution (Promega) diluted 20-fold with PBS containing 20 mM HEPES was added into each well. After 15 min incubation at room temperature, luminescence was quantified using a Spectramax i3x microplate reader (Molecular Devices). Activation fold for each sample was calculated by dividing relative luminescence units (RLU) for each condition by RLUs from PBS control. Dose response curves of each chemical were performed in a similar way with varying the ligand concentration from 10^−4 M to 10^−15 M.

HRH1 = biological target: T2, HRH1 (Homo sapiens, UniProt P35367); settings: for HRH1 dose-response raw reporter signal (Fig. 5b source data): replicate wells
T2 construct: expressed in transfected cells; host or cells: HTLA cells (HEK293 line stably expressing β-arrestin-TEV and tTA-Luciferase)
T2 sequence (P35367 whole entry): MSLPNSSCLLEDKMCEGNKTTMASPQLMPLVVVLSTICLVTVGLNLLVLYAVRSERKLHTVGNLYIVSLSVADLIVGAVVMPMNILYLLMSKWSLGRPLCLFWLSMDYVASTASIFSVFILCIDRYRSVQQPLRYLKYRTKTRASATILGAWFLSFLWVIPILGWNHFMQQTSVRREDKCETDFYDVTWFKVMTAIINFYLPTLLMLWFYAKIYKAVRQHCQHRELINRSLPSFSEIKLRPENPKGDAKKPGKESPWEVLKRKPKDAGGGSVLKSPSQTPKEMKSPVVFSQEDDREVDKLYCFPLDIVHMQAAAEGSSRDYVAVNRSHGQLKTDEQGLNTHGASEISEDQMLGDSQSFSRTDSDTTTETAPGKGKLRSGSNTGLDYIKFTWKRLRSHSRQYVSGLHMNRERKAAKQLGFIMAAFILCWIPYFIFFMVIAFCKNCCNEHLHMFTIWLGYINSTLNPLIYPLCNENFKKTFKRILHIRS
Procedure: as §1

HRH3 = biological target: T3, HRH3 (Homo sapiens, UniProt Q9Y5N1); settings: for HRH3 dose-response raw reporter signal (Fig. 5b source data): replicate wells
T3 construct: expressed in transfected cells; host or cells: HTLA cells (HEK293 line stably expressing β-arrestin-TEV and tTA-Luciferase)
T3 sequence (Q9Y5N1 whole entry): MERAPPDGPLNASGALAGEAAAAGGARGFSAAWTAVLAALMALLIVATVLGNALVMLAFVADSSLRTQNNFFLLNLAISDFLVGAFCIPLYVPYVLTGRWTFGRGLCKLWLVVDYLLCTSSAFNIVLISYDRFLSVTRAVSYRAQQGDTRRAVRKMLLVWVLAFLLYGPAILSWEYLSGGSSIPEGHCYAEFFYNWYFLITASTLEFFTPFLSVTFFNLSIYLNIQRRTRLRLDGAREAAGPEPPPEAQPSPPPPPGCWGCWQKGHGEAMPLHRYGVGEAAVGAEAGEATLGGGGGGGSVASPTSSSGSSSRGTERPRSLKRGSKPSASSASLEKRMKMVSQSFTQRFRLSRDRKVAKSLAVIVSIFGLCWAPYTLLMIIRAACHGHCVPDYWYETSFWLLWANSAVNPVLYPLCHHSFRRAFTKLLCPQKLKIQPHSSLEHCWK
Procedure: as §1

[1] = biological target: T4, histamine receptor H4 (HRH4) (Homo sapiens, UniProt Q9H3N8); settings: for HRH4 dose-response raw reporter signal (Fig. 5b source data): replicate wells
T4 construct: expressed in transfected cells; host or cells: HTLA cells (HEK293 line stably expressing β-arrestin-TEV and tTA-Luciferase)
T4 sequence (Q9H3N8 whole entry): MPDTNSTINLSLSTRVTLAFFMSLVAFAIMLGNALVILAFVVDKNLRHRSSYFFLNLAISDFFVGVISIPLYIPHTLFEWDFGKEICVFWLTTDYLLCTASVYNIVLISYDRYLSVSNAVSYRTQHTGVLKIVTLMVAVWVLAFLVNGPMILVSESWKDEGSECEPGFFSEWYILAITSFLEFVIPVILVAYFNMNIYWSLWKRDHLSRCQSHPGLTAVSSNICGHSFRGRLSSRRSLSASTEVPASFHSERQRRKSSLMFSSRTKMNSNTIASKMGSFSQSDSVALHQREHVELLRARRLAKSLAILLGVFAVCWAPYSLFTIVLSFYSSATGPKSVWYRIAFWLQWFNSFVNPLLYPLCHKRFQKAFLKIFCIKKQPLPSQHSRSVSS
Procedure: as §1

In the case of `COC(=O)CCc1nc(Cc2ccccc2)c(CCC(=O)O)nc1Cc1ccccc1` [9-Me], the “HRH2 dose-response raw reporter signal (Fig. 5b source data)” value (“HRH2 dose-response raw reporter signal” below) (HRH2; Log(10)Conc (M) -4) is reported as 83 and 65 and 100, the “HRH2 dose-response raw reporter signal” value (HRH2; Log(10)Conc (M) -5) is reported as 41 and 50 and 56 and the “HRH2 dose-response raw reporter signal” value (HRH2; Log(10)Conc (M) -6) is reported as 56 and 47 and 32. The “HRH2 dose-response raw reporter signal” value (HRH2; Log(10)Conc (M) -7) was 65 and 62 and 35, the “HRH2 dose-response raw reporter signal” value (HRH2; Log(10)Conc (M) -8) was 97 and 47 and 41 and the “HRH2 dose-response raw reporter signal” value (HRH2; Log(10)Conc (M) -9) was 41 and 35 and 77. The “HRH2 dose-response raw reporter signal” value (HRH2; Log(10)Conc (M) -10) was 38 and 80 and 41, the “HRH2 dose-response raw reporter signal” value (HRH2; Log(10)Conc (M) -11) was 91 and 32 and 56 and the “HRH2 dose-response raw reporter signal” value (HRH2; Log(10)Conc (M) -12) was 53 and 71 and 59. For the same compound, the “HRH2 dose-response raw reporter signal” value (HRH2; Log(10)Conc (M) -13) was 38 (2×) and 85, the “HRH2 dose-response raw reporter signal” value (HRH2; Log(10)Conc (M) -14) was 38 and 65 and 56 and the “HRH2 dose-response raw reporter signal” value (HRH2; Log(10)Conc (M) -15) was 32 and 41 and 83. For the same compound, the “activity towards HRH2” value (HRH2; PRESTO-Tango dose-response) was “no activity”, the “HRH1 dose-response raw reporter signal (Fig. 5b source data)” value (shortened to “HRH1 dose-response raw reporter signal”) (HRH1; Log(10)Conc (M) -4) was 50545 and 47748 and the “HRH1 dose-response raw reporter signal” value (HRH1; Log(10)Conc (M) -5) was 50057 and 47492. For the same compound, the “HRH1 dose-response raw reporter signal” value (HRH1; Log(10)Conc (M) -6) was 50434 and 47377, the “HRH1 dose-response raw reporter signal” value (HRH1; Log(10)Conc (M) -7) was 50075 and 47693 and the “HRH1 dose-response raw reporter signal” value (HRH1; Log(10)Conc (M) -8) was 49488 and 47793. For the same compound, the “HRH1 dose-response raw reporter signal” value (HRH1; Log(10)Conc (M) -9) was 48159 and 46626, the “HRH1 dose-response raw reporter signal” value (HRH1; Log(10)Conc (M) -10) was 48713 and 47646 and the “HRH1 dose-response raw reporter signal” value (HRH1; Log(10)Conc (M) -11) was 49358 and 47065. For the same compound, the “HRH1 dose-response raw reporter signal” value (HRH1; Log(10)Conc (M) -12) was 50278 and 46581, the “HRH1 dose-response raw reporter signal” value (HRH1; Log(10)Conc (M) -13) was 49874 and 48613 and the “HRH1 dose-response raw reporter signal” value (HRH1; Log(10)Conc (M) -14) was 50243 and 49745. The “HRH1 dose-response raw reporter signal” value (HRH1; Log(10)Conc (M) -15) was 45927 and 43079, the “activity towards HRH1” value (HRH1; PRESTO-Tango dose-response) was “no activity” and the “HRH3 dose-response raw reporter signal (Fig. 5b source data)” value (“HRH3 dose-response raw reporter signal” for short) (HRH3; Log(10)Conc (M) -4) was 348 and 274 and 324. For the same compound, the “HRH3 dose-response raw reporter signal” value (HRH3; Log(10)Conc (M) -5) was 112 and 156 and 153, the “HRH3 dose-response raw reporter signal” value (HRH3; Log(10)Conc (M) -6) was 127 and 174 and 142 and the “HRH3 dose-response raw reporter signal” value (HRH3; Log(10)Conc (M) -7) was 91 and 130 and 165. The “HRH3 dose-response raw reporter signal” value (HRH3; Log(10)Conc (M) -8) was 168 and 112 and 162, the “HRH3 dose-response raw reporter signal” value (HRH3; Log(10)Conc (M) -9) was 127 and 103 and 139 and the “HRH3 dose-response raw reporter signal” value (HRH3; Log(10)Conc (M) -10) was 174 and 144 and 115. The “HRH3 dose-response raw reporter signal” value (HRH3; Log(10)Conc (M) -11) was 162 (2×) and 97, the “HRH3 dose-response raw reporter signal” value (HRH3; Log(10)Conc (M) -12) was 139 and 168 and 144 and the “HRH3 dose-response raw reporter signal” value (HRH3; Log(10)Conc (M) -13) was 183 and 168 and 153. For the same compound, the “HRH3 dose-response raw reporter signal” value (HRH3; Log(10)Conc (M) -14) was 183 and 85 and 150, the “HRH3 dose-response raw reporter signal” value (HRH3; Log(10)Conc (M) -15) was 94 and 115 and 112 and the “activity towards HRH3” value (HRH3; PRESTO-Tango dose-response) was “no activity”. The “HRH4 dose-response raw reporter signal (Fig. 5b source data)” value (“HRH4 dose-response raw reporter signal” below) ([1]; Log(10)Conc (M) -5) was 427 and 460, the “HRH4 dose-response raw reporter signal” value ([1]; Log(10)Conc (M) -6) was 342 and 348 and the “HRH4 dose-response raw reporter signal” value ([1]; Log(10)Conc (M) -7) was 348 and 321. For the same compound, the “HRH4 dose-response raw reporter signal” value ([1]; Log(10)Conc (M) -8) was 410 and 321, the “HRH4 dose-response raw reporter signal” value ([1]; Log(10)Conc (M) -9) was 324 and 251 and the “HRH4 dose-response raw reporter signal” value ([1]; Log(10)Conc (M) -10) was 377 and 368. The “HRH4 dose-response raw reporter signal” value ([1]; Log(10)Conc (M) -11) was 262 and 307, the “HRH4 dose-response raw reporter signal” value ([1]; Log(10)Conc (M) -12) was 407 and 336 and the “HRH4 dose-response raw reporter signal” value ([1]; Log(10)Conc (M) -13) was 298 and 395. The “HRH4 dose-response raw reporter signal” value ([1]; Log(10)Conc (M) -14) was 268, the “HRH4 dose-response raw reporter signal” value ([1]; Log(10)Conc (M) -15) was 215 and 212 and the “activity towards HRH4” value ([1]; PRESTO-Tango dose-response) was “no activity”.
For `NCCc1c[nH]cn1` [Histamine, histamine, reference compound], the “HRH2 dose-response raw reporter signal” value (HRH2; Log(10)Conc (M) -4) was 3877 and 3933 and 3726, the “HRH2 dose-response raw reporter signal” value (HRH2; Log(10)Conc (M) -5) was 699 and 758 and 693 and the “HRH2 dose-response raw reporter signal” value (HRH2; Log(10)Conc (M) -6) was 144 and 156 and 139. For the same compound, the “HRH2 dose-response raw reporter signal” value (HRH2; Log(10)Conc (M) -7) was 56 and 88 (2×), the “HRH2 dose-response raw reporter signal” value (HRH2; Log(10)Conc (M) -8) was 94 and 91 and 50 and the “HRH2 dose-response raw reporter signal” value (HRH2; Log(10)Conc (M) -9) was 62 and 56 and 65. For the same compound, the “HRH2 dose-response raw reporter signal” value (HRH2; Log(10)Conc (M) -10) was 59 and 68 and 77, the “HRH2 dose-response raw reporter signal” value (HRH2; Log(10)Conc (M) -11) was 53 and 68 and 38 and the “HRH2 dose-response raw reporter signal” value (HRH2; Log(10)Conc (M) -12) was 50 and 56 and 88. The “HRH2 dose-response raw reporter signal” value (HRH2; Log(10)Conc (M) -13) was 44 and 77 and 100, the “HRH2 dose-response raw reporter signal” value (HRH2; Log(10)Conc (M) -14) was 44 and 83 and 77 and the “HRH2 dose-response raw reporter signal” value (HRH2; Log(10)Conc (M) -15) was 32 and 47 and 38. The “HRH1 dose-response raw reporter signal” value (HRH1; Log(10)Conc (M) -4) was 81577 and 82137, the “HRH1 dose-response raw reporter signal” value (HRH1; Log(10)Conc (M) -5) was 78216 and 78255 and the “HRH1 dose-response raw reporter signal” value (HRH1; Log(10)Conc (M) -6) was 75259 and 78673. The “HRH1 dose-response raw reporter signal” value (HRH1; Log(10)Conc (M) -7) was 76949 and 75622, the “HRH1 dose-response raw reporter signal” value (HRH1; Log(10)Conc (M) -8) was 67606 and 69585 and the “HRH1 dose-response raw reporter signal” value (HRH1; Log(10)Conc (M) -9) was 52047 and 52194. For the same compound, the “HRH1 dose-response raw reporter signal” value (HRH1; Log(10)Conc (M) -10) was 45399 and 45284, the “HRH1 dose-response raw reporter signal” value (HRH1; Log(10)Conc (M) -11) was 44193 and 43739 and the “HRH1 dose-response raw reporter signal” value (HRH1; Log(10)Conc (M) -12) was 45001 and 44441. The “HRH1 dose-response raw reporter signal” value (HRH1; Log(10)Conc (M) -13) was 46307 and 47693, the “HRH1 dose-response raw reporter signal” value (HRH1; Log(10)Conc (M) -14) was 46469 and 45317 and the “HRH1 dose-response raw reporter signal” value (HRH1; Log(10)Conc (M) -15) was 42643 and 42151. The “HRH4 dose-response raw reporter signal” value ([1]; Log(10)Conc (M) -5) was 20161 and 21099, the “HRH4 dose-response raw reporter signal” value ([1]; Log(10)Conc (M) -6) was 15058 and 15677 and the “HRH4 dose-response raw reporter signal” value ([1]; Log(10)Conc (M) -7) was 3788 and 3862. For the same compound, the “HRH4 dose-response raw reporter signal” value ([1]; Log(10)Conc (M) -8) was 887 and 1023, the “HRH4 dose-response raw reporter signal” value ([1]; Log(10)Conc (M) -9) was 590 and 625 and the “HRH4 dose-response raw reporter signal” value ([1]; Log(10)Conc (M) -10) was 537 and 513. The “HRH4 dose-response raw reporter signal” value ([1]; Log(10)Conc (M) -11) was 475, the “HRH4 dose-response raw reporter signal” value ([1]; Log(10)Conc (M) -12) was 433 and 407 and the “HRH4 dose-response raw reporter signal” value ([1]; Log(10)Conc (M) -13) was 377 and 419. The “HRH4 dose-response raw reporter signal” value ([1]; Log(10)Conc (M) -14) was 545 and 448 and the “HRH4 dose-response raw reporter signal” value ([1]; Log(10)Conc (M) -15) was 245.
